Consider 7 compounds from publication PMC8615111, “Phenolic Thiazoles with Antioxidant and Antiradical Activity. Synthesis, In Vitro Evaluation, Toxicity, Electrochemical Behavior, Quantum Studies and Antimicrobial Screening” (Antioxidants, 2021).

A short description of assay [1]: DPPH˙ radical scavenging assay. To be noted: for IC50: DPPH˙ scavenging. The class given is biochemical. The protocol:
The 2,2-diphenyl-1-picrylhydrazyl (DPPH˙) radical scavenging assay is based on the transfer of one hydrogen from the analyzed compound to the violet radical DPPH˙. This will convert it to a yellow compound, the change in absorbance being proportional to the amount of DPPH˙ neutralized, according to Brand-Williams et al..
The preparation of the DPPH˙ reagent was previously reported by our group. […] Over the previous quantities, DMSO was added until a total volume of 50 µL was obtained in all cuvettes, and 1950 µL of DPPH˙ solution was added to all cuvettes; then, they were shaken for well over 10 min in the dark at room temperature. The absorbances of the solutions were measured at λ = 517 nm. The DPPH˙ radical scavenging activity of evaluated compounds was calculated using Equation (2):(2) DPPH scavenging (%)=control absorbance−sample absorbance/control absorbance×100
(In general: DPPH is a stable violet radical that fades when it is reduced.)

Assay [2] in a line: ABTS˙^+ radical scavenging assay. It is filed as biochemical. On the procedure: The assay was based on the decolorization of green (2,2′-azinobis-(3-ethylbenzothiazoline-6-sulfonic acid) ABTS˙^+ to ABTS, on the principle reported by Re et al. and was carried out according to our previously published research.
Later, 1950 µL of ABTS˙^+ reagent was added to all cuvettes and they were shaken for well over 10 min in the dark at room temperature. The absorbance of the resulted solutions found in cuvettes was determined spectrophotometrically at λ = 734 nm. The ABTS scavenging activity of the compounds was calculated using the following Equation (1):(1) ABTS scavenging (%)=control absorbance−sample absorbance/control absorbance×100

Another assay deals with HaCaT cells. Briefly: Cytotoxicity determination, MTT method. It is filed as cell-based. To be noted: Homo sapiens, 24 h. The protocol: To determine the cytotoxic action of the obtained compounds 5[…], and 8a-b, a normal human keratinocytes cell line was used (HaCaT keratinocytes, CLS-300493, Eppelheim, Germany). HaCaT cells were cultured in Dulbecco's Modified Eagle Media (DMEM) supplemented with 1% L-glutamine, 1% penicillin-streptomycin, and 5% fetal bovine serum. At 80% confluence, the cells were transferred to 96 well plates at a confluence of 12×10^3 cells/well and left to attach for 24 h at 37°C and 5% CO2 in a humidified atmosphere. […] After 24 h, the culture media was replaced with 100 μL of MTT solution at a final concentration of 5 μg/mL/well and left to interact with the cells for 2 h in the incubator. After this, the MTT solution was replaced with 100 μL of isopropanol, left to dissolve the formazan crystals for 5 min, and read at 550 and 630 nm using a BioTek Epoch plate reader (BioTek Instruments, Winooski, VT, USA) and Gen5 software (version 1.09).
(In general: Tetrazolium dyes change colour on reduction, which living cells bring about.)

The nature of assay [3]: TEMPO scavenging by differential pulse voltammetry. The conditions noted are these: 2 mM TEMPO, one hour incubation, 0.1 M HClO4, DPV. The protocol: The antioxidant properties were evaluated in terms of their activity against some free radicals, and other compounds reported in the literature, relevant for this purpose, such as: • ferric ions (Fe^3+)—used to test the reduction of the antioxidant character of the compounds; • DPPH˙ free radical– used to test the scavenging effect of the compounds on this radical; • hydrogen peroxide (H2O2)—used to test the scavenging effect of the synthesized molecules on this compound; • 2,2,6,6-tetramethylpiperidinyl-1-oxy (TEMPO)—used to test the scavenging effect of the synthesized molecules on this compound.
TEMPO (2,2,6,6-tetramethylpiperidine-N-oxyl) is a stable organic nitroxide radical that has been reported to scavenge carbon-centered radicals.
Differential pulse voltammetry (DPV) was then applied in order to evaluate the antioxidant effectiveness of the novel compounds through their ability to scavenge the free radical species.

The test system of the next assay is E. coli ATCC 25922. Briefly: Antimicrobial activity, modified microdilution. The class given is cell-based. To be noted: Escherichia coli, ATCC25922. The protocol:
(§1) For evaluating the antimicrobial activity of the compounds, […] aerobic microbial strains were used: S. aureus ATCC 25923, S. pyogenes ATCC 19615, P. aeruginosa ATCC 27853, S. enterica ISM 83/37, S. typhimurium ATCC 14028, E. coli ATCC 8739, E. coli ATCC 25922, and C. albicans ATCC 102310 obtained from Food Biotechnology Laboratory, Life Sciences Institute, University of Agricultural Sciences, and Veterinary Medicine Cluj Napoca, where the experiment was performed. The antimicrobial activity of the compounds was determined using a modified microdilution technique, and the followed protocol was previously reported.
(§2) The antimicrobial activity of the final compounds, against seven aerobic microbial strains (S. aureus ATCC 25923, S. pyogenes ATCC 19615, P. aeruginosa ATCC 27853, S. enterica ISM 83/37, S. typhimurium ATCC 14028, E. coli ATCC 8739, E. coli ATCC 25922), and a fungal strain (C. albicans ATCC 102310), was determined using a modified microdilution technique.
(§3) The results of the antimicrobial activity evaluation of the compounds, in comparison to norfloxacin and chloramphenicol used as standard antibiotics and fluconazole used as reference antifungal, are depicted in Table 10.

Another assay has as its system S. pyogenes ATCC 19615. Put plainly: Antimicrobial activity, modified microdilution. It is filed as cell-based. To be noted: Streptococcus pyogenes, ATCC19615. On the procedure:
as §1, §2, §3

The test system of assay [4] is S. typhimurium ATCC 14028. Briefly: Antimicrobial activity, modified microdilution. The class given is cell-based. To be noted: Salmonella enterica. The protocol: as §1, §2, §3
The next assay deals with E. coli ATCC 8739. Put plainly: Antimicrobial activity, modified microdilution. The class given is cell-based. To be noted: Escherichia coli, ATCC8739. On the procedure:
as §1, §2, §3
Background: In broth dilution the organism is exposed to a series of concentrations in liquid medium.

The next assay has as its system S. enterica ISM 83/37. Briefly: Antimicrobial activity, modified microdilution. The conditions noted are these: Salmonella enterica, ISM83/37. It is filed as cell-based. The protocol: as §1, §2, §3
A further assay relates to P. aeruginosa ATCC 27853. Put plainly: Antimicrobial activity, modified microdilution. It is filed as cell-based. To be noted: Pseudomonas aeruginosa, ATCC27853. On the procedure:
as §1, §2, §3

In a further assay the test system is S. aureus ATCC 25923. Briefly: Antimicrobial activity, modified microdilution. The conditions noted are these: Staphylococcus aureus, ATCC25923. It is filed as cell-based. The protocol: as §1, §2, §3
The subject of a further assay is C. albicans ATCC 102310. Briefly: Antifungal activity, modified microdilution. It is filed as cell-based. The conditions noted are these: Candida albicans, ATCC102310. The protocol: as §1, §2, §3
The nature of assay [5]: NO˙ radical scavenging assay (Griess reaction). It is filed as biochemical. The conditions noted are these: 100 µL of test solution 1 mg/mL in DMSO, 150 min, pH 7.4. The protocol:
Scavenging of the NO˙ radical was performed according to some adapted protocols reported in the literature, based on the nitroprusside decomposition at physiological pH and colorimetric quantification of the resulted products using the Griess reaction.
Over 200 µL of 10 mM sodium nitroprusside, 100 µL of test solutions (1 mg/mL in DMSO), and 400 µL phosphate-buffered saline (PBS, pH = 7.4) were added. The mixture was then incubated at room temperature for 150 min on a rotating shaker (GFL Gesellschaft für Labortechnik, Burgwedel, Germany). After that, 1 mL of sulfanilic acid 0.33% in 20% acetic acid was added and after 5 min, 1 mL of naphthylethylenediamine […] 0.1% was added to all test tubes. After 30 min, the absorbance of the sample, given by the chromophore (azo dye) formed during the diazotization of nitrite ions resulting from decomposition of sodium nitroprusside with sulfanilic acid and coupled with naphthylethylenediamine, was measured at 546 nm. The NO˙ radical scavenging activity of the tested compounds was calculated using Equation (3):(3) NO˙ scavenging (%)=control absorbance−sample absorbance/control absorbance×100

The next assay is described as follows: Cu^2+ chelation assay. The class given is biochemical.
A further assay can be described thus: Fe^2+ chelation assay. The class given is biochemical. On the procedure:
The protocol used for assessing Fe^2+ chelating capacity of the compounds was adapted from a report of Benzie and Strain and previously reported by our group. The iron(II) chelation ability of compounds was calculated using Equation (7):(7) iron chelation (%)=control absorbance−sample absorbance/control absorbance×100
The chelating potential for the ferrous ions of the new compounds was determined, based on their competition for Fe^2+ with ferrozine.

In brackets after ≈: the same amount, converted by molar mass. Where two headings read alike, the source gives them in different places.

Regarding `O=C1O[C@H]([C@@H](O)CO)C(O)=C1O` [Ascorbic acid, reference compound], the “% of DPPH˙ Scavenged” value came to 19.39% in assay [1] (1 µg/mL); 29.10% in assay [1] (1.5 µg/mL); 38.27% in [1] (2 µg/mL); 53.42% in assay [1] (3 µg/mL); 80.28% in [1] (5 µg/mL). Besides, the IC50 – broadly, the concentration needed to halve the response being measured – in assay [1] is 2.89 µg/mL (≈ 16.4 µM); in assay [2] (ABTS˙^+ scavenging), 1.97 µg/mL (≈ 11.2 µM); in the assay with HaCaT cells (HaCaT), 22.8 µg/mL; with HaCaT cells (HaCaT cells, MTT, read-out: IC50), 129 µM. Also, the “% of ABTS˙^+ Scavenged” value is on record as 9.56% in assay [2] (0.5 µg/mL); 14.32% in assay [2] (0.75 µg/mL); 20.61% in assay [2] (1 µg/mL); 38.24% in assay [2] (1.5 µg/mL); 64.58% in [2] (2.5 µg/mL). The “oxidation signal for TEMPO after incubation with the compound” value in assay [3] is “decreases”.
`O=C(N[C@H](CO)[C@H](O)c1ccc([N+](=O)[O-])cc1)C(Cl)Cl` [Chloramphenicol, reference compound]: the MIC (as a rule, the least concentration at which growth counts as inhibited) with E. coli ATCC 25922 was 3.9 µg/mL (≈ 12.1 µM); against S. pyogenes ATCC 19615, 3.9 µg/mL (≈ 12.1 µM); in [4], below 0.48 µg/mL; in the assay with E. coli ATCC 8739, 7.8 µg/mL (≈ 24.1 µM); against S. enterica ISM 83/37 it was 3.9 µg/mL (≈ 12.1 µM); with P. aeruginosa ATCC 27853, 0.48 µg/mL (≈ 1.49 µM). For the same compound, the lowest concentration to inhibit growth with S. aureus ATCC 25923 (MIC) was 7.8 µg/mL (≈ 24.1 µM).
As for `OC(Cn1cncn1)(Cn1cncn1)c1ccc(F)cc1F` [Fluconazole, reference compound], in the assay on C. albicans ATCC 102310, the MIC amounted to 31.2 µg/mL (≈ 102 µM).
As to `O=C(O)c1cc(O)ccc1O` [Gentisic acid, reference compound], the “% of NO˙ Scavenged” value in [5] is reported as 47.33%.
`CCn1cc(C(=O)O)c(=O)c2cc(F)c(N3CCNCC3)cc21` [Norfloxacin, reference compound]: the MIC is 7.8 µg/mL (≈ 24.4 µM) with E. coli ATCC 25922; below 0.48 µg/mL in the assay with S. pyogenes ATCC 19615; below 0.48 µg/mL in assay [4]; below 0.48 µg/mL against E. coli ATCC 8739; below 0.48 µg/mL in the assay on S. enterica ISM 83/37; 7.8 µg/mL (≈ 24.4 µM) against P. aeruginosa ATCC 27853. In the assay on S. aureus ATCC 25923, the lowest concentration to inhibit growth (MIC) was 0.48 µg/mL (≈ 1.5 µM).
For the compound `Cc1c(C)c2c(c(C)c1O)CCC(C)(C(=O)O)O2` (centres unmarked) [Trolox, reference compound], the “% of NO˙ Scavenged” value in assay [5] is listed as 32.12%. Also, the “% of DPPH˙ Scavenged” value turned out to be 10.83% in assay [1] (1 µg/mL); 17.10% in [1] (1.5 µg/mL); 20.56% in assay [1] (2 µg/mL); 31.91% in assay [1] (3 µg/mL); 53.67% in assay [1] (5 µg/mL). This compound displayed an IC50 in assay [1] of 4.68 µg/mL (≈ 18.7 µM).
In the case of “disodium salt of ethylenediaminetetraacetic acid [EDTA-Na2, reference compound]”, the “Chelation Capacity (%), cupric ions” value was 12.36% in “Cu^2+ chelation assay” (3.36 µg/mL); 19.61% in the assay “Cu^2+ chelation assay” (6.72 µg/mL); 29.97% in the assay “Cu^2+ chelation assay” (10.08 µg/mL); 39.18% in “Cu^2+ chelation assay” (13.44 µg/mL); 45.86% in the assay “Cu^2+ chelation assay” (16.80 µg/mL). Besides, the “Chelation Capacity (%), ferrous ions” value in the assay “Fe^2+ chelation assay” (50 µg/mL) is 20.86%; in “Fe^2+ chelation assay” (100 µg/mL) it was 57.32%; in the assay “Fe^2+ chelation assay” (150 µg/mL), above 95.00%; in the assay “Fe^2+ chelation assay” (200 µg/mL), above 95.00%.
